From US11873298B2, “Compounds and uses thereof” (JANSSEN PHARMACEUTICA NV, priority 2017, dated 2024)

biological target: T1, SCD5 (Homo sapiens, UniProt Q86SK9); assay: Growth inhibition of humanized yeast strain expressing SCD5 as sole desaturase; format: cell-based; details: humanized yeast strain expressing SCD5
T1 construct: host or cells: S. cerevisiae ole1Δ strain (W303 pdr1Δ pdr3Δ background), plasmid pRS316 with TDH3 promoter and CYC1 terminator
T1 sequence (Q86SK9 1-330): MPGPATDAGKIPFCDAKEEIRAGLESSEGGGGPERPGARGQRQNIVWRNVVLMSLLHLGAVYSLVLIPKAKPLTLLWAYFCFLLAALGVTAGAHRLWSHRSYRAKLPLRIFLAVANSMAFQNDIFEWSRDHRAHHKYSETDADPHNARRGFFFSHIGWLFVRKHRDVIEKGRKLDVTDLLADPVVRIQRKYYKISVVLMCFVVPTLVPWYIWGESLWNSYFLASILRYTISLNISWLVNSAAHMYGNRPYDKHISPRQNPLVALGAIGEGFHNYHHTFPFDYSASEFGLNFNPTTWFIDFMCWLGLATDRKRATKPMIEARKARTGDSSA
Description: Strain oleΔ (yeast ole1 deletion mutant) was constructed by deleting OLE1 with NAT-MX6 in BY4741, amplifying the deletion cassette from the genomic DNA of the resulting strain with primers flanking the ORF by 1000 bp upstream and downstream, transforming the resulting deletion cassette into W303 pdr1Δ pdr3Δ, and plating transformants on YPD media containing G418 (200 μg/mL) and nourseothricin ([…]) with 0.01% TWEEN®-20 and 0.5 mM oleic and palmitoleic acids.
The coding sequence of yeast OLE1 was also cloned into this plasmid). These clones were then transformed into the ole1Δ strain and plated on CSM-Ura media (CSM lacking uracil) with 2% glucose (w/v) and independent colonies were isolated and amplified.
All compound profiling experiments were performed using the same basic protocol. Different genetic backgrounds (e.g., gene deletions) or conditions (e.g., addition of oleic and palmitoleic acid) were replaced as indicated below.
Yeast were cultured using standard techniques in complete synthetic media (CSM) and yeast nitrogen base supplemented with 2% (w/v) carbon source (glucose, raffinose, or galactose) to regulate the expression of the toxic disease protein. An initial starter culture was inoculated in 3 mL CSM-Glucose media and incubated overnight in a 30° C. shaker incubator (225 rpm). Saturated morning cultures were then diluted 1:20 in fresh CSM-Raffinose media and grown for 6 h to an OD600 (optical density) of ˜0.4-0.8 at 30° C. with shaking.
Compound administration was performed in two separate steps. First, 15 μL of CSM-Galactose (induces expression of toxic protein) was dispensed into clear 384 well assay plates using a MULTIDROP™ Combi reagent dispenser. […] The cultures described above were then diluted to a 2× concentration (0.03 and 0.08 for alpha-synuclein and ApoE, final ODsoo of 0.015 and 0.04) in CSM-Galactose. For wild-type and Ole1/SCD1/SCD5 plasmid-containing strains, the 2× cell density was 0.02. […] For 96-well assays (FIGS. 1A and 1B), compound dilutions in DMSO were generated in 96 well plates and 1 μL was manually pipetted into 96 well clear bottom assay plates.
For experiments using a plasmid-borne copy of Ole1, SCD1, or SCD5 (FIGS. 3B, 6, and 7), media lacking uracil (SX-Ura, where X is glucose, raffinose, or galactose), was used for all steps of the compound profiling protocol to ensure its maintenance throughout the assay.
After yeast delivery, assay plates were incubated under humidified conditions at 30° C. for 24 to 40 h. ApoE4 rescue experiments were stopped at 24 h, aSyn experiments at 40 h, Ole1 at 24 h, and SCD1/SCD5 at 40 h. The growth of yeast was monitored by reading the ODsoo of each well using a microplate reader (Perkin Elmer EnVision™).

| Compound | IC50 [µM] |
| --- | --- |
| CC(C)n1ncc2ccc(-c3noc(N4CCN(C(=O)CC5(C)CC5)CC4)n3)cc21 [Compound 495] | 1.92 |
| CC(C)n1ncc2ccc(-c3noc(N4C[C@H]5CN(C(=O)CC(C)(C)C)C[C@H]5C4)n3)cc21 [Compound 497] | 11.3 |
| CC(C)n1ncc2ccc(-c3noc([C@@H]4[C@@H]5CN(C(=O)OC(C)(C)C)C[C@@H]54)n3)cc21 [Compound 498] | > 45 |
| CC(C)n1ncc2ccc(-c3nc(C4CCN(C(=O)c5ccccn5)CC4)no3)cc21 [Compound 499] | 1.1 |
| Cc1nn(C)c2cc(-c3noc(C4CCN(C(=O)CC5CN(C(=O)OC(C)(C)C)C5)CC4)n3)ccc12 [Compound 502] | 38.9 |
| Cc1nn(C)c2cc(-c3nsc(C4CCN(C(=O)OC(C)(C)C)CC4)n3)ccc12 [Compound 503] | 0.316 |
| CC(C)n1ncc2ccc(-c3nc(C4CCN(C(=O)c5ccc(Cl)cc5)CC4)no3)cc21 [Compound 505] | 0.669 |
| CC(C)n1ncc2ccc(-c3nc(C4CCN(C(=O)c5cccc(F)c5)CC4)no3)cc21 [Compound 506] | 0.81 |
| CC(C)OC(=O)N1CCC(c2nc(-c3ccc4oc(=O)n(C(C)C)c4c3)no2)CC1 [Compound 507] | 2.44 |
| CC(C)n1ncc2ccc(-c3noc(C4=C(F)CN(C(=O)OC(C)(C)C)CC4)n3)cc21 [Compound 510] | 4.16 |
| CC(C)n1ncc2ccc(-c3noc(C4CCN(C(=O)[C@@H]5CC(=O)N(c6cccc(C#N)c6)C5)CC4)n3)cc21 [Compound 528] | > 45 |
| CC(C)n1ncc2ccc(-c3noc(C4CCN(C(=O)[C@H]5CC(=O)N(c6cccc(C#N)c6)C5)CC4)n3)cc21 [Compound 529] | > 45 |
| CC(C)n1ncc2ccc(-c3noc(N4C[C@@H]5CNC[C@H]5C4)n3)cc21 [Compound 530] | > 45 |
| CC(C)n1ncc2ccc(-c3noc(C4CCN(C(=O)c5ccccc5F)CC4)n3)cc21 [Compound 532] | 2.15 |
| CC(C)n1ncc2ccc(-c3noc(C4CCN(C(=O)c5ccc(Cl)cc5F)CC4)n3)cc21 [Compound 533] | 3.33 |
| CC(C)n1ncc2ccc(N3CC4(CCN(C(=O)c5ccccc5Cl)CC4)C3)cc21 [Compound 534] | 36.8 |
| CC(=O)N[C@H]1CC[C@H](c2nc(-c3ccc4cnn(C(C)C)c4c3)no2)CC1 [Compound 535] | > 45 |
| CC(C)n1ncc2ccc(-c3noc([C@H]4CC[C@@H](N)CC4)n3)cc21 [Compound 536] | > 45 |
| CC(C)n1ncc2ccc(-c3noc([C@H]4CC[C@H](NC(=O)OC(C)(C)C)CC4)n3)cc21 [Compound 537] | > 45 |
| CC(C)n1ncc2ccc(N3CC4(CCNCC4)C3)cc21 [Compound 538] | > 45 |
| COc1ccc(S(=O)(=O)N2CCC(c3nc(-c4ccc5cnn(C(C)C)c5c4)no3)CC2)c(Br)c1 [Compound 539] | > 45 |
| CC(C)n1ncc2ccc(-c3noc(C4CCN(S(=O)(=O)c5ccccc5Cl)CC4)n3)cc21 [Compound 540] | > 45 |
| CC(C)n1ncc2ccc(-c3noc(C4CCN(C(=O)c5ccc(Cl)c(F)c5)CC4)n3)cc21 [Compound 541] | > 45 |
| CC(C)n1ncc2ccc(-c3noc(C4CCN(C(=O)c5ccc(F)cc5)CC4)n3)cc21 [Compound 544] | 10 |
| Cn1ncc2ccc(-c3noc(N4CCN(C(=O)OC(C)(C)C)CC4)n3)cc21 [Compound 545] | 18.9 |
| CC(C)n1ncc2ccc(-c3nc(C4CCN(C(=O)CC5(C)CC5)CC4)no3)cc21 [Compound 546] | 0.019 |
| CC(C)n1ncc2ccc(-c3nc(N4CCN(C(=O)OC(C)(C)C)CC4)no3)cc21 [Compound 548] | 0.01 |
| CC(C)n1ncc2ccc(-c3noc(C4CCN(C(=O)c5nccs5)CC4)n3)cc21 [Compound 549] | 1.21 |

| Compound | IC50 [µM] |
| --- | --- |
| COC(=O)N[C@H]1CC[C@@H](c2nc(-c3ccc4c(C)nn(C)c4c3)no2)CC1 [Compound 550] | > 45 |
| CC(C)n1ncc2ccc(-c3noc(N4CC5(CCN(C(=O)OC(C)(C)C)CC5)C4)n3)cc21 [Compound 555] | > 45 |
| CC(C)n1ncc2ccc(-c3noc(C4CCN(C(=O)CNC(=O)c5cccc(C#N)c5)CC4)n3)cc21 [Compound 556] | > 45 |
| O=C(CC1CC1)N1CCC(c2nc(-c3ccc4cnn(C5COC5)c4c3)no2)CC1 [Compound 558] | 1.07 |
| CC1(CC(=O)N2CCC(c3nc(-c4ccc5cnn(C6COC6)c5c4)no3)CC2)CC1 [Compound 559] | 1.19 |
| CCc1cnc(N2CCC(c3nc(-c4ccc5c(C)nn(C)c5c4)no3)CC2)cn1 [Compound 560] | > 45 |
| COC(=O)N1CCC(c2nc(-c3ccc4cnn(C(F)F)c4c3)no2)CC1 [Compound 561] | 29.4 |
| O=C(c1ccccc1Cl)N1CCC(c2nc(-c3ccc4cnn(C5COC5)c4c3)no2)CC1 [Compound 562] | 1.5 |
| O=C(c1ccccc1)N1CCC(c2nc(-c3ccc4cnn(C5COC5)c4c3)no2)CC1 [Compound 564] | 4.23 |
| CC(C)CS(=O)(=O)N1CCC(c2nc(-c3ccc4cnn(C(C)C)c4c3)no2)CC1 [Compound 565] | > 45 |
| COC(=O)N1C[C@H]2CN(c3nc(-c4ccc5cnn(C(C)C)c5c4)no3)C[C@@H]2C1 [Compound 568] | > 45 |
| CC(C)n1ncc2ccc(-c3noc(N4C[C@@H]5CN(C(=O)CC(C)(C)C)C[C@H]5C4)n3)cc21 [Compound 569] | > 45 |
| COC(=O)N1CCC2(CC1)CN(c1nc(-c3ccc4cnn(C(C)C)c4c3)no1)C2 [Compound 570] | 26.3 |
| CC(=O)N1CCC2(CC1)CN(c1nc(-c3ccc4cnn(C(C)C)c4c3)no1)C2 [Compound 571] | > 45 |
| CC(C)N1C(=O)CCc2ccc(-c3noc(C4CCN(C(=O)OC(C)(C)C)CC4)n3)cc21 [Compound 572] | 15 |
| CC(C)n1ncc2ccc(-c3noc(C4CCN(C(=O)c5cscn5)CC4)n3)cc21 [Compound 573] | 5.6 |
| CC(C)n1ncc2ccc(-c3noc(C4CCN(C(=O)c5cccs5)CC4)n3)cc21 [Compound 574] | 2.28 |
| CC(C)n1ncc2ccc(-c3noc(C4CCN(C(=O)c5ccsc5Cl)CC4)n3)cc21 [Compound 575] | 4.68 |
| CC1(OC(=O)N2CCC(c3nc(-c4ccc5cnn(C6COC6)c5c4)no3)CC2)CC1 [Compound 576] | 0.028 |
| Cc1nn(C)c2cc(-c3noc([C@@H]4CCN(C(=O)CNC(=O)c5ccccc5)CC4(F)F)n3)ccc12 [Compound 577] | > 45 |
| Cc1nn(C)c2cc(-c3noc(C4CCN(c5nc(C(C)C)no5)CC4)n3)ccc12 [Compound 581] | > 45 |
| CC(C)n1ncc2ccc(-c3nc(N4CCN(C(=O)c5ccccc5)CC4)no3)cc21 [Compound 582] | 0.176 |
| CC(C)n1ncc2ccc(-c3noc(C4CCN(C(=O)c5ccc(Cl)cn5)CC4)n3)cc21 [Compound 586] | 3.77 |
| CC(C)n1ncc2ccc(-c3noc(C4CCN(C(=O)c5ncccc5Cl)CC4)n3)cc21 [Compound 587] | 4.92 |
| CC(C)n1ncc2ccc(-c3noc(C4CCN(C(=O)c5ccsn5)CC4)n3)cc21 [Compound 588] | 1.86 |
| CC(C)n1ncc2ccc(-c3noc(C4CCN(C(=O)c5ncc(Cl)s5)CC4)n3)cc21 [Compound 589] | 0.356 |
| Cc1noc2cc(-c3noc(C4CCN(C(=O)OC5(C)CC5)CC4)n3)ccc12 [Compound 590] | > 45 |
